Source: ChEMBL document CHEMBL6134788, “Development of naphthalimide hydrazide derivatives as potent antibacterial agents against carbapenem-resistant A. baumannii” (RSC Med Chem, 2024)
≈ marks a conversion by molar mass, not a printed value.

Assays:
Acinetobacter baumannii [1] = assay: Antibacterial activity against multi-drug resistant Acinetobacter baumannii clinical isolate 6 assessed as inhibition of bacterial growth incubated for 16 to 18 hrs by CLSI protocol based method; type: functional; conditions: time 16-18 hrs, read-out: MIC100
Acinetobacter baumannii [2] = assay: Antibacterial activity against multi-drug resistant Acinetobacter baumannii Naval-17 assessed as inhibition of bacterial growth incubated for 16 to 18 hrs by CLSI protocol based method; type: functional; conditions: time 16-18 hrs, read-out: MIC100
Acinetobacter baumannii [3] = assay: Antibacterial activity against multi-drug resistant Acinetobacter baumannii WL-136 assessed as inhibition of bacterial growth incubated for 16 to 18 hrs by CLSI protocol based method; type: functional; conditions: time 16-18 hrs, read-out: MIC100
Acinetobacter baumannii [4] = assay: Antibacterial activity against multi-drug resistant Acinetobacter baumannii clinical isolate 1 assessed as inhibition of bacterial growth incubated for 16 to 18 hrs by CLSI protocol based method; type: functional; conditions: time 16-18 hrs, read-out: MIC100
Acinetobacter baumannii [5] = assay: Antibacterial activity against multi-drug resistant Acinetobacter baumannii clinical isolate 3 assessed as inhibition of bacterial growth incubated for 16 to 18 hrs by CLSI protocol based method; type: functional; conditions: time 16-18 hrs, read-out: MIC100
Acinetobacter baumannii [6] = assay: Antibacterial activity against Acinetobacter baumannii ATCC 17978 assessed as inhibition of bacterial growth incubated for 16 to 18 hrs by CLSI protocol based method; type: functional; conditions: time 16-18 hrs, read-out: MIC100
[7] = Selectivity index, ratio of CC50 for cytotoxicity against African green monkey VERO cells to MIC for antibacterial activity against carbapenem-resistant Acinetobacter baumannii BAA 1605 assessed as inhibition of bacterial growth; type: toxicity, cell-based; conditions: read-out: Selectivity Index
Acinetobacter baumannii [8] = assay: Antibacterial activity against multi-drug resistant Acinetobacter baumannii clinical isolate 5 assessed as inhibition of bacterial growth incubated for 16 to 18 hrs by CLSI protocol based method; type: functional; conditions: time 16-18 hrs, read-out: MIC100
Acinetobacter baumannii [9] = assay: Antibacterial activity against multi-drug resistant Acinetobacter baumannii Naval-18 assessed as inhibition of bacterial growth incubated for 16 to 18 hrs by CLSI protocol based method; type: functional; conditions: time 16-18 hrs, read-out: MIC100
Acinetobacter baumannii [10] = assay: Antibacterial activity against multi-drug resistant Acinetobacter baumannii H72721 assessed as inhibition of bacterial growth incubated for 16 to 18 hrs by CLSI protocol based method; type: functional; conditions: time 16-18 hrs, read-out: MIC100
Klebsiella pneumoniae = assay: Antibacterial activity against Klebsiella pneumoniae BAA 1705 assessed as inhibition of bacterial growth incubated for 16 to 18 hrs by CLSI protocol based method; type: functional; conditions: time 16-18 hrs, read-out: MIC100
Acinetobacter baumannii [11] = assay: Antibacterial activity against multi-drug resistant Acinetobacter baumannii clinical isolate 9 assessed as inhibition of bacterial growth incubated for 16 to 18 hrs by CLSI protocol based method; type: functional; conditions: time 16-18 hrs, read-out: MIC100
Acinetobacter baumannii [12] = assay: Antibacterial activity against multi-drug resistant Acinetobacter baumannii 5-032 assessed as inhibition of bacterial growth incubated for 16 to 18 hrs by CLSI protocol based method; type: functional; conditions: time 16-18 hrs, read-out: MIC100
Acinetobacter baumannii [13] = assay: Antibacterial activity against multi-drug resistant Acinetobacter baumannii clinical isolate 12 assessed as inhibition of bacterial growth incubated for 16 to 18 hrs by CLSI protocol based method; type: functional; conditions: time 16-18 hrs, read-out: MIC100
Pseudomonas aeruginosa = assay: Antibacterial activity against Pseudomonas aeruginosa ATCC 27853 assessed as inhibition of bacterial growth incubated for 16 to 18 hrs by CLSI protocol based method; type: functional; conditions: time 16-18 hrs, read-out: MIC100
Acinetobacter baumannii [14] = assay: Antibacterial activity against multi-drug resistant Acinetobacter baumannii clinical isolate 4 assessed as inhibition of bacterial growth incubated for 16 to 18 hrs by CLSI protocol based method; type: functional; conditions: time 16-18 hrs, read-out: MIC100
[15] = Cytotoxicity against African green monkey Vero cells assessed as reduction in cell viability incubated for 72 hrs by MTT assay; type: toxicity, cell-based; conditions: chlorocebus sabaeus
Acinetobacter baumannii [16] = assay: Antibacterial activity against multi-drug resistant Acinetobacter baumannii clinical isolate 11 assessed as inhibition of bacterial growth incubated for 16 to 18 hrs by CLSI protocol based method; type: functional; conditions: time 16-18 hrs, read-out: MIC100
Acinetobacter baumannii [17] = assay: Antibacterial activity against multi-drug resistant Acinetobacter baumannii 5-189 assessed as inhibition of bacterial growth incubated for 16 to 18 hrs by CLSI protocol based method; type: functional; conditions: time 16-18 hrs, read-out: MIC100
Acinetobacter baumannii [18] = assay: Antibacterial activity against carbapenem-resistant Acinetobacter baumannii BAA 1605 assessed as inhibition of bacterial growth incubated for 16 to 18 hrs by CLSI protocol based method; type: functional; conditions: time 16-18 hrs, read-out: MIC100
Acinetobacter baumannii [19] = assay: Antibacterial activity against multi-drug resistant Acinetobacter baumannii clinical isolate 10 assessed as inhibition of bacterial growth incubated for 16 to 18 hrs by CLSI protocol based method; type: functional; conditions: time 16-18 hrs, read-out: MIC100
Escherichia coli = assay: Antibacterial activity against Escherichia coli ATCC 25922 assessed as inhibition of bacterial growth incubated for 16 to 18 hrs by CLSI protocol based method; type: functional; conditions: time 16-18 hrs, read-out: MIC100
Acinetobacter baumannii [20] = assay: Antibacterial activity against multi-drug resistant Acinetobacter baumannii 5-109 assessed as inhibition of bacterial growth incubated for 16 to 18 hrs by CLSI protocol based method; type: functional; conditions: time 16-18 hrs, read-out: MIC100
Acinetobacter baumannii [21] = assay: Antibacterial activity against multi-drug resistant Acinetobacter baumannii clinical isolate 8 assessed as inhibition of bacterial growth incubated for 16 to 18 hrs by CLSI protocol based method; type: functional; conditions: time 16-18 hrs, read-out: MIC100
Acinetobacter baumannii [22] = assay: Antibacterial activity against multi-drug resistant Acinetobacter baumannii clinical isolate 2 assessed as inhibition of bacterial growth incubated for 16 to 18 hrs by CLSI protocol based method; type: functional; conditions: time 16-18 hrs, read-out: MIC100
Acinetobacter baumannii [23] = assay: Antibacterial activity against multi-drug resistant Acinetobacter baumannii clinical isolate 7 assessed as inhibition of bacterial growth incubated for 16 to 18 hrs by CLSI protocol based method; type: functional; conditions: time 16-18 hrs, read-out: MIC100
Acinetobacter baumannii [24] = assay: Antibacterial activity against multi-drug resistant Acinetobacter baumannii BC-5 assessed as inhibition of bacterial growth incubated for 16 to 18 hrs by CLSI protocol based method; type: functional; conditions: time 16-18 hrs, read-out: MIC100
Staphylococcus aureus [25] = assay: Antibacterial activity against Staphylococcus aureus ATCC 29213 assessed as inhibition of bacterial growth incubated for 16 to 18 hrs by CLSI protocol based method; type: functional; conditions: time 16-18 hrs, read-out: MIC100
Acinetobacter baumannii [26] = assay: Antibacterial activity against multi-drug resistant Acinetobacter baumannii 5-143 assessed as inhibition of bacterial growth incubated for 16 to 18 hrs by CLSI protocol based method; type: functional; conditions: time 16-18 hrs, read-out: MIC100
Acinetobacter baumannii [27] = assay: Antibacterial activity against multi-drug resistant Acinetobacter baumannii WL-487 assessed as inhibition of bacterial growth incubated for 16 to 18 hrs by CLSI protocol based method; type: functional; conditions: time 16-18 hrs, read-out: MIC100
Acinetobacter baumannii [28] = assay: Antibacterial activity against multi-drug resistant Acinetobacter baumannii Naval-81 assessed as inhibition of bacterial growth incubated for 16 to 18 hrs by CLSI protocol based method; type: functional; conditions: time 16-18 hrs, read-out: MIC100
Acinetobacter baumannii [29] = assay: Antibacterial activity against multi-drug resistant Acinetobacter baumannii NR-17777 assessed as inhibition of bacterial growth incubated for 16 to 18 hrs by CLSI protocol based method; type: functional; conditions: time 16-18 hrs, read-out: MIC100
Acinetobacter baumannii [30] = assay: Antibacterial activity against Acinetobacter baumannii; type: functional
Staphylococcus aureus [31] = assay: Antibacterial activity against Staphylococcus aureus; type: functional
Acinetobacter baumannii [32] = assay: Antibacterial activity against Acinetobacter baumannii assessed as inhibition of bacterial growth by twofold serial dilution method; type: functional
Acinetobacter baumannii [33] = assay: Antibacterial activity against Acinetobacter baumannii assessed as inhibition of bacterial growth by CLSI protocol based assay; type: functional

Structure (SMILES) | MIC (Acinetobacter baumannii [1]) | MIC (Acinetobacter baumannii [2]) | MIC (Acinetobacter baumannii [3]) | MIC (Acinetobacter baumannii [4]) | MIC (Acinetobacter baumannii [5]) | MIC (Acinetobacter baumannii [6]) | selectivity ratio [7] | MIC (Acinetobacter baumannii [8]) | MIC (Acinetobacter baumannii [9]) | MIC (Acinetobacter baumannii [10]) | MIC (Klebsiella pneumoniae) | MIC (Acinetobacter baumannii [11]) | MIC (Acinetobacter baumannii [12]) | MIC (Acinetobacter baumannii [13]) | MIC (Pseudomonas aeruginosa) | MIC (Acinetobacter baumannii [14]) | CC50 at 72 h [15] | MIC (Acinetobacter baumannii [16]) | MIC (Acinetobacter baumannii [17]) | MIC (Acinetobacter baumannii [18]) | further results
N#Cc1ccc(NNC(=O)CCN2C(=O)c3cccc4cccc(c34)C2=O)cc1 | 4 µg/mL (≈ 10.4 µM) | 2 µg/mL (≈ 5.2 µM) | 2 µg/mL (≈ 5.2 µM) | 1 µg/mL (≈ 2.6 µM) | 1 µg/mL (≈ 2.6 µM) | 2 µg/mL (≈ 5.2 µM) | > 200 | 4 µg/mL (≈ 10.4 µM) | 2 µg/mL (≈ 5.2 µM) | 2 µg/mL (≈ 5.2 µM) | > 64 µg/mL | 2 µg/mL (≈ 5.2 µM) | 2 µg/mL (≈ 5.2 µM) | 2 µg/mL (≈ 5.2 µM) | > 64 µg/mL | 2 µg/mL (≈ 5.2 µM) | > 100 µg/mL | 2 µg/mL (≈ 5.2 µM) | 4 µg/mL (≈ 10.4 µM) | 0.5 µg/mL (≈ 1.3 µM) | MIC (Acinetobacter baumannii [19]): 8 µg/mL (≈ 20.8 µM); MIC (Escherichia coli): > 64 µg/mL; MIC (Acinetobacter baumannii [20]): 2 µg/mL (≈ 5.2 µM); MIC (Acinetobacter baumannii [21]): 2 µg/mL (≈ 5.2 µM); MIC (Acinetobacter baumannii [22]): 2 µg/mL (≈ 5.2 µM); MIC (Acinetobacter baumannii [23]): 1 µg/mL (≈ 2.6 µM); MIC (Acinetobacter baumannii [24]): 2 µg/mL (≈ 5.2 µM); MIC (Staphylococcus aureus [25]): > 64 µg/mL; MIC (Acinetobacter baumannii [26]): 1 µg/mL (≈ 2.6 µM); MIC (Acinetobacter baumannii [27]): 4 µg/mL (≈ 10.4 µM); MIC (Acinetobacter baumannii [28]): 2 µg/mL (≈ 5.2 µM); MIC (Acinetobacter baumannii [29]): 2 µg/mL (≈ 5.2 µM)
N#Cc1ccc(NNC(=O)c2ccc(Br)cc2)cc1 |  |  |  |  |  |  |  |  |  |  |  |  |  |  |  |  |  |  |  |  | MIC (Acinetobacter baumannii [30]): 0.25 µg/mL (≈ 0.791 µM)
Cc1ccc2cc(C(=O)N3CCN(CCN4C(=O)c5cccc6cccc(c56)C4=O)CC3)c(=O)oc2c1 |  |  |  |  |  |  |  |  |  |  |  |  |  |  |  |  |  |  |  |  | MIC (Staphylococcus aureus [31]): 0.5 µg/mL (≈ 1.01 µM)
O=C(CCN1C(=O)c2cccc3cccc(c23)C1=O)NNc1ccc(Cl)cc1 | 2 µg/mL (≈ 5.08 µM) | 1 µg/mL (≈ 2.54 µM) | 1 µg/mL (≈ 2.54 µM) | 1 µg/mL (≈ 2.54 µM) | 0.5 µg/mL (≈ 1.27 µM) | 1 µg/mL (≈ 2.54 µM) | > 200 | 2 µg/mL (≈ 5.08 µM) | 1 µg/mL (≈ 2.54 µM) | 1 µg/mL (≈ 2.54 µM) | > 64 µg/mL | 1 µg/mL (≈ 2.54 µM) | 2 µg/mL (≈ 5.08 µM) | 1 µg/mL (≈ 2.54 µM) | > 64 µg/mL | 1 µg/mL (≈ 2.54 µM) | > 100 µg/mL | 2 µg/mL (≈ 5.08 µM) | 2 µg/mL (≈ 5.08 µM) | 0.5 µg/mL (≈ 1.27 µM) | MIC (Acinetobacter baumannii [19]): 2 µg/mL (≈ 5.08 µM); MIC (Escherichia coli): > 64 µg/mL; MIC (Acinetobacter baumannii [20]): 2 µg/mL (≈ 5.08 µM); MIC (Acinetobacter baumannii [21]): 1 µg/mL (≈ 2.54 µM); MIC (Acinetobacter baumannii [22]): 1 µg/mL (≈ 2.54 µM); MIC (Acinetobacter baumannii [23]): 1 µg/mL (≈ 2.54 µM); MIC (Acinetobacter baumannii [24]): 1 µg/mL (≈ 2.54 µM); MIC (Staphylococcus aureus [25]): > 64 µg/mL; MIC (Acinetobacter baumannii [26]): 2 µg/mL (≈ 5.08 µM); MIC (Acinetobacter baumannii [27]): 1 µg/mL (≈ 2.54 µM); MIC (Acinetobacter baumannii [28]): 1 µg/mL (≈ 2.54 µM); MIC (Acinetobacter baumannii [29]): 2 µg/mL (≈ 5.08 µM)
CCCCCCCCCCN1CCN(c2ccc3c4c(cccc24)C(=O)N(CC(O)Cn2c([N+](=O)[O-])cnc2C)C3=O)CC1 (stereo not drawn) |  |  |  |  |  |  |  |  |  |  |  |  |  |  |  |  |  |  |  |  | MIC (Acinetobacter baumannii [32]): 13 µM (≈ 7.86 µg/mL)
CN1C(=O)/C(=C/NNc2ccc(C#N)cc2)SC1=S |  |  |  |  |  |  |  |  |  |  |  |  |  |  |  |  |  |  |  |  | MIC (Acinetobacter baumannii [33]): 16 µg/mL (≈ 55.1 µM)
